Assay results from publication PMC3687523 (Biochemical pharmacology, 2013).

What was measured:
rat brain CYP2D [1] = details: 20 μg i.c.v. propranolol
rat brain CYP2D [2] = system: rat brain CYP2D
[3] = 30 min after 30 mg/kg s.c. codeine
[4] = 20 μg i.c.v. propranolol, 30 mg/kg s.c. codeine

In the case of `CC(C)NCC(O)COc1cccc2ccccc12` (centres unmarked) [propranolol], the “brain morphine concentration, compared to vehicle-pretreated rats” value (rat brain CYP2D [1]; [3]) was “significantly lower”, the “plasma morphine concentration, compared to vehicle-pretreated rats” value (rat brain CYP2D [1]; [3]) was “equal” and the “brain morphine concentrations, propranolol- vs vehicle-pretreated rats” value (rat brain CYP2D [1]; at both 60 and 90 min after 30 mg/kg s.c. codeine) was “no significant difference”. The “percentage of maximal analgesic effect (%MPE) after codeine, compared to vehicle pretreatment” value (rat brain CYP2D [2]; 20 μg i.c.v. propranolol 24 h before 30 mg/kg s.c. codeine, at 15, 20, 30 and 40 min) was “significantly lower”, the “area under the analgesia-time curve (AUC) 0-30 min after codeine, compared to vehicle pretreatment” value (rat brain CYP2D [2]; [4]) was “significantly lower” and the “area under the analgesia-time curve (AUC) 60-120 min after codeine, compared to vehicle pretreatment” value (rat brain CYP2D [2]; [4]) was “Neither inhibitor resulted in lower AUC”. For the same compound, the “AUC of analgesia after morphine, compared to vehicle pretreatment” value (rat brain CYP2D [2]; 40 μg i.c.v. propranolol, 5 mg/kg s.c. morphine, all time periods) was “did not result in significantly different” and the “%MPE after morphine, compared to vehicle pretreatment” value (rat brain CYP2D [2]; 40 μg i.c.v. propranolol, 5 mg/kg s.c. morphine, all time points) was “did not result in significantly different %MPE”.
